Results published in ChEMBL document CHEMBL6134805, “Dual-acting β-Aminothiochromones: Design, synthesis, and evaluation as antimicrobial and anti-angiogenic agents” (2025).
In brackets after ≈: the same amount, converted by molar mass. Activity calls are given as the source filed them. No cut-off for these calls is given here.

Assays:
Nakaseomyces glabratus = assay: Antimicrobial activity against Candida glabrata MTCC 3019 assessed as reduction in fungal growth by serial dilution method; format: functional
Candida albicans [1] = assay: Fungicidal activity against Candida albicans ATCC 24433 by serial dilution method; format: functional
Candida albicans [2] = assay: Antimicrobial activity against Candida albicans ATCC 24433 assessed as reduction in fungal growth by serial dilution method; format: functional
Staphylococcus aureus [3] = assay: Antimicrobial activity against Staphylococcus aureus ATCC 6538 assessed as reduction in bacterial growth by serial dilution method; format: functional
Bacillus subtilis [4] = assay: Bactericidal activity against Bacillus subtilis MTCC 13343 by serial dilution method; format: functional
Staphylococcus aureus [5] = assay: Bactericidal activity against Staphylococcus aureus ATCC 6538 by serial dilution method; format: functional
Bacillus subtilis [6] = assay: Antimicrobial activity against Bacillus subtilis MTCC 13343 assessed as reduction in bacterial growth by serial dilution method; format: functional
HepG2 [7] = assay: Cytotoxicity against human HepG2 cells assessed as reduction in cell viability up to 100 ug/mL by MTT assay relative to control; format: functional; conditions: dose <= 100 µg/ml; up to 100 µg/mL
HepG2 [8] = assay: Antiangiogenic activity against human HepG2 cells assessed as reduction in area of wound coverage at 6.25 to 12.5 ug/mL by scratch wound healing assay; format: functional, cell-based; conditions: dose 6.25-12.5 µg/ml, time 24-72 hrs
Pseudomonas aeruginosa [9] = assay: Antimicrobial activity against Pseudomonas aeruginosa MTCC 11778 assessed as reduction in bacterial growth by serial dilution method; format: functional
HepG2 [10] = assay: Antiangiogenic activity against human HepG2 cells assessed as reduction in area of wound coverage at 12.5 ug/mL incubated for 24 to 72 hrs by scratch wound healing assay; format: functional, cell-based; conditions: dose 12.5 µg/ml, time 24-72 hrs
HepG2 [11] = assay: Cytotoxicity against human HepG2 cells assessed as reduction in cell viability at 25 to 100 ug/mL by MTT assay; format: functional, cell-based; conditions: dose 25-100 µg/ml
HepG2 [12] = assay: Antiangiogenic activity against human HepG2 cells assessed as reduction in area of wound coverage at 6.25 ug/mL incubated for 24 to 72 hrs by scratch wound healing assay; format: functional, cell-based; conditions: dose 6.25 µg/ml, time 24-72 hrs
HepG2 [13] = assay: Antiangiogenic activity against human HepG2 cells assessed as reduction in area of wound coverage at 12.5 ug/mL incubated for 72 hrs by scratch wound healing assay relative to control; format: functional; parameters: scale not given: the % may be the effect or the level left; conditions: dose 12.5 µg/ml
HepG2 [14] = assay: Antiangiogenic activity against human HepG2 cells assessed as reduction in area of wound coverage incubated for 24 to 72 hrs by scratch wound healing assay; format: functional, cell-based; conditions: dose 6.25-12.5 µg/ml, time 24-72 hrs
Escherichia coli [15] = assay: Antimicrobial activity against Escherichia coli ATCC 10799 assessed as reduction in bacterial growth by serial dilution method; format: functional
Pseudomonas aeruginosa [16] = assay: Bactericidal activity against Pseudomonas aeruginosa MTCC 11778 by serial dilution method; format: functional
Bacillus subtilis [17] = assay: Selectivity ratio of MBC for bactericidal activity against Bacillus subtilis MTCC 13343 to MIC for antimicrobial activity against Bacillus subtilis MTCC 13343; format: functional
Escherichia coli [18] = assay: Selectivity ratio of MBC for bactericidal activity against Escherichia coli ATCC 10799 to MIC for antimicrobial activity against Escherichia coli ATCC 10799; format: functional
Escherichia coli [19] = assay: Bactericidal activity against Escherichia coli ATCC 10799 by serial dilution method; format: functional
HepG2 [20] = assay: Antiangiogenic activity against human HepG2 cells assessed as reduction in area of wound coverage at 12.5 ug/mL incubated for 24 hrs by scratch wound healing assay; format: functional; conditions: dose 12.5 µg/ml
HepG2 [21] = assay: Antiangiogenic activity against human HepG2 cells assessed as reduction in area of wound coverage at 12.5 ug/mL incubated for 72 hrs by scratch wound healing assay; format: functional; conditions: dose 12.5 µg/ml
HepG2 [22] = assay: Cytotoxicity against human HepG2 cells assessed as reduction in cell viability at 100 ug/mL by MTT assay relative to control; format: functional; conditions: dose 100 µg/ml
HepG2 [23] = assay: Antiangiogenic activity against human HepG2 cells assessed as reduction in area of wound coverage at 12.5 ug/mL incubated for 48 hrs by scratch wound healing assay; format: functional; conditions: dose 12.5 µg/ml

| SMILES | MIC (Nakaseomyces glabratus) [µg/mL] | MIC (Candida albicans [2]) [µg/mL] | MIC (Staphylococcus aureus [3]) [µg/mL] | MBC (Bacillus subtilis [4]) [µg/mL] | MIC (Bacillus subtilis [6]) [µg/mL] | Activity (HepG2 [7]) [%] | Activity (HepG2 [8]) | MIC (Pseudomonas aeruginosa [9]) [µg/mL] | Activity (HepG2 [10]) | Activity (HepG2 [11]) | Activity (HepG2 [12]) | Activity (HepG2 [13]) [%] | Activity (HepG2 [14]) | MIC (Escherichia coli [15]) [µg/mL] | MBC (Pseudomonas aeruginosa [16]) [µg/mL] | other results |
| --- | --- | --- | --- | --- | --- | --- | --- | --- | --- | --- | --- | --- | --- | --- | --- | --- |
| OC(Cn1cncn1)(Cn1cncn1)c1ccc(F)cc1F [FLUCONAZOLE] | 16 (≈ 52.2 µM) | 8 (≈ 26.1 µM) | – | – | – | – | – | – | – | – | – | – | – | – | – | MFC (Candida albicans [1]): 64 µg/mL (≈ 209 µM) |
| CC1(C)S[C@@H]2[C@H](NC(=O)[C@H](N)c3ccccc3)C(=O)N2[C@H]1C(=O)O [AMPICILLIN] | – | – | 4 (≈ 11.4 µM) | 32 (≈ 91.6 µM) | 8 (≈ 22.9 µM) | – | – | – | – | – | – | – | – | – | – | MBC (Staphylococcus aureus [5]): 64 µg/mL (≈ 183 µM) |
| O=c1c(C(NCc2ccc(Cl)cc2)c2ccccc2)csc2ccccc12 (stereo not drawn) | 32 (≈ 81.6 µM) | 32 (≈ 81.6 µM) | 64 (≈ 163 µM) | – | 64 (≈ 163 µM) | <70 | Time-dependent-effect | 32 (≈ 81.6 µM) | Active | Active | Active | 25.83 | Dose-dependent-effect | 32 (≈ 81.6 µM) | – | – |
| O=c1c(C(NCc2ccc(OC(F)(F)F)cc2)c2ccccc2)csc2ccccc12 (stereo not drawn) | 16 (≈ 36.2 µM) | 16 (≈ 36.2 µM) | 8 (≈ 18.1 µM) | 64 (≈ 145 µM) | 16 (≈ 36.2 µM) | >70 | Time-dependent-effect | 16 (≈ 36.2 µM) | Active | Active | Active | 31.19 | Dose-dependent-effect | 8 (≈ 18.1 µM) | 64 (≈ 145 µM) | Selectivity ratio (Bacillus subtilis [17]): 16; MBC (Staphylococcus aureus [5]): 32 µg/mL (≈ 72.5 µM); Selectivity ratio (Escherichia coli [18]): 4; MBC (Escherichia coli [19]): 32 µg/mL (≈ 72.5 µM) |
| O=C(O)c1cn(C2CC2)c2cc(N3CCNCC3)c(F)cc2c1=O [CIPROFLOXACIN] | – | – | – | – | – | – | – | 4 (≈ 12.1 µM) | – | – | – | – | – | – | 32 (≈ 96.6 µM) | MBC (Escherichia coli [19]): 64 µg/mL (≈ 193 µM) |
| O=c1c(C(NCc2ccccc2)c2ccccc2)csc2ccc(Cl)cc12 (stereo not drawn) | 8 (≈ 20.4 µM) | 16 (≈ 40.8 µM) | 16 (≈ 40.8 µM) | 64 (≈ 163 µM) | 4 (≈ 10.2 µM) | – | Time-dependent-effect | 8 (≈ 20.4 µM) | – | Active | Active | 18.24 | Dose-dependent-effect | 16 (≈ 40.8 µM) | 64 (≈ 163 µM) | Activity (HepG2 [20]): 768000 µm²; Activity (HepG2 [21]): 692000 µm²; Selectivity ratio (Bacillus subtilis [17]): 16; Activity (HepG2 [22]): 80%; Activity (HepG2 [23]): 683000 µm² |
| O=c1c(C(NCc2cccc(C(F)(F)F)c2)c2ccccc2)csc2ccccc12 (stereo not drawn) | 64 (≈ 150 µM) | 32 (≈ 75.2 µM) | 64 (≈ 150 µM) | – | 64 (≈ 150 µM) | <70 | Time-dependent-effect | 32 (≈ 75.2 µM) | Active | Active | Active | 28.93 | Dose-dependent-effect | 32 (≈ 75.2 µM) | – | – |
